The text below walks through data of patent US7282469B2, “4-trifluoromethylpyrazolyl-substituted pyridines and pyrimidines” (Bayer CropScience GmbH, priority 2002, dated 2007).

In data set [1] the test system is Alopecurus myosuroides. As to the kind of experiment: Weed plant herbicidal activity, pre-emergence. The class given is in vivo. Particulars: 20 g of active substance per hectare, visual scoring after 3 to 4 weeks. The text has this:
(§1) 1. Weed Plant Herbicidal Activity and Crop Plant Tolerance, Pre-emergence
(§2) Seeds of monocotyledonous and dicotyledonous weed plants and also of crop plants are placed in sandy loam soil in cardboard pots and are covered with soil. The compounds of the invention, formulated as wettable powders or emulsifiable concentrates, are then applied as an aqueous suspension or emulsion, respectively, and at different dosages to the surface of the covering soil at an application rate of 600 to 800 l of water per ha (converted). Following treatment, the pots are placed in a greenhouse and kept under good growth conditions for the weeds. Visual scoring of the plant damage or emergence damage is made after the test plants have emerged, after an experimental period of 3 to 4 weeks, in comparison with untreated controls. In this case, for example, the compounds of the invention from examples nos. 1.7 and 4.1 at a dosage of 320 g of active substance per hectare display a 100% activity against Digitaria sanguinalis, Setaria viridis and Amaranthus retroflexus. At the same dosage these compounds of the invention cause no damage to the crop plants Oryza sativa (rice) and Glycine max (soybean). The compound of the invention from example no. […] At the same dosage this compound of the invention causes no damage to the crop plants Oryza sativa (rice), Zea mays (maize) and Glycine max (soybean). At a dosage of 320 g of active substance per hectare, the compound of the invention from example no.

The test system of data set [2] is Amaranthus retroflexus. As to the kind of experiment: Weed plant herbicidal activity, pre-emergence. Particulars: visual scoring after 3 to 4 weeks. Format: in vivo.
Description: as §1, §2

The subject of data set [3] is Digitaria sanguinalis. The experiment in a line: Weed plant herbicidal activity, pre-emergence. Particulars: 320 g of active substance per hectare, visual scoring after 3 to 4 weeks. The class given is in vivo.
Description: as §1, §2

The subject of data set [4] is Setaria viridis. As to the kind of experiment: Weed plant herbicidal activity, pre-emergence. Format: in vivo. Particulars: visual scoring after 3 to 4 weeks.
Description: as §1, §2

In data set [5] the test system is Veronica persica. As to the kind of experiment: Weed plant herbicidal activity, pre-emergence. Particulars: 20 g of active substance per hectare, visual scoring after 3 to 4 weeks. The class given is in vivo.
Description: as §1, §2

Data set [6] concerns Glycine max (soybean). The experiment in a line: Crop plant tolerance, pre-emergence. The class given is in vivo.
Description: as §1, §2

For data set [7], the system named is Oryza sativa (rice). As to the kind of experiment: Crop plant tolerance, pre-emergence. Format: in vivo.
Description: as §1, §2

Data set [8] has as its system Zea mays (maize). As to the kind of experiment: Crop plant tolerance, pre-emergence. The class given is in vivo. Particulars: 20 g of active substance per hectare.
Description: as §1, §2

Setting [9] is: 20 g of active substance per hectare.
Where [10] appears, read: 320 g of active substance per hectare.

Structures are written as SMILES.

A word on the melting point: it is the temperature, or range, at which the solid turns liquid. Molecule `Cc1cnc(-n2cc(C(F)(F)F)cn2)nc1Oc1cccc(C(F)(F)F)c1` [Example 1.7, 5-methyl-4-(3-trifluoromethylphenoxy)-2-(4-trifluoromethyl-1H-1-pyrazolyl)pyrimidine] displayed a melting point of 103 to 105 °C. For the same molecule, the “activity against Alopecurus myosuroides” value in data set [1] was “at least 90%”. Also, the “activity against Amaranthus retroflexus” value in data set [2] (setting [9]) was “at least 90%”. Also, the “activity against Amaranthus retroflexus” value in [2] (setting [10]) was found to be 100%. Besides, the “activity against Digitaria sanguinalis” value in [3] came out at 100%. In data set [4] (setting [9]), the “activity against Setaria viridis” value was “at least 90%”. The “activity against Setaria viridis” value in data set [4] (setting [10]) was 100%. Also, the “activity against Veronica persica” value in [5] is recorded as “at least 90%”. Also, the “damage to the crop plant Glycine max (soybean)” value in [6] (setting [9]) was “no damage”. Further, the “damage to the crop plant Glycine max (soybean)” value in data set [6] (setting [10]) is “no damage”. Also, the “damage to the crop plant Oryza sativa (rice)” value in data set [7] (setting [9]) is “no damage”. Moreover, in data set [7] (setting [10]), the “damage to the crop plant Oryza sativa (rice)” value is reported as “no damage”. In data set [8], the “damage to the crop plant Zea mays (maize)” value is “no damage”.
